Data from patent publication US20050171012A1, “Preventives/remedies for bone/joint diseases” (TAKEDA CHEMICAL INDUSTRIES, LTD., priority 2001, published 2005).

Key:
[1] = target: T1, human DIO2 (Homo sapiens, UniProt Q92813); test: Thyroid hormone deiodinase activity (T3 production from T4, T3 RIA) in disrupted COS-7 cells with DIO2 expression plasmid pTB2249; type: biochemical; settings: FIG. 4c
T1 construct: expressed in transfected cells; host or cells: COS-7 cells, transiently transfected with pTB2249 (pcDNA3.1 backbone), sonicated to disrupted cells
T1 sequence (Q92813 1-273): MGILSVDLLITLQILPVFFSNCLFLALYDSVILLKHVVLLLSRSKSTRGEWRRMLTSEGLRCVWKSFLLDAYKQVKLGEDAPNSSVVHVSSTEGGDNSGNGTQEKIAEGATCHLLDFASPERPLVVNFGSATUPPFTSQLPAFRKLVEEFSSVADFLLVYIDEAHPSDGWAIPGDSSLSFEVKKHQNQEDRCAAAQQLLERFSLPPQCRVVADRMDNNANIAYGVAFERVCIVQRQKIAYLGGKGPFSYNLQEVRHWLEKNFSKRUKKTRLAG
Source text: (§1) Using human thyroid-derived cDNA (Marathon Ready cDNA; Clontech) as a template, the following sequences were amplified by PCR: the amino acid coding sequence (cds) of human DIO1 (type 1 thyroid hormone deiodinase) using primer 1 (SEQ ID NO: 17) and primer 2 (SEQ ID NO: 18); DIO1 selenocystein insertion sequence (SECIS) using primer 3 (SEQ ID NO: 19) and primer 4 (SEQ ID NO: 20); human DIO2 cds using primer 5 (SEQ ID NO: 21) and primer 6 (SEQ ID NO: 22); and DIO2 SECIS (Buettner et al., 1998) using primer 7 (SEQ ID NO: 23) and primer 8 (SEQ ID NO: 24).
(§2) The resultant DNAs for human DIO1 cds and human DIO2 cds were inserted into pcDNA3.1 (Invitrogen) individually to thereby obtain plasmids pTB2240 and pTB2242. Further, the resultant DNAs for human DIO1 SECIS and human DIO2 SECIS were inserted into pCR2.1 (Invitrogen) individually to thereby obtain plasmids pTB2241 and pTB2244. DIO1 SECIS and DIO2 SECIS were cut out with restriction enzymes Sca I and Not I (Takara Shuzo) and introduced into DIO1 or DIO2 coding sequence-inserted plasmid pretreated with restriction enzymes Eco RV and Not I (Takara Shuzo) to thereby construct DIO1 expression plasmid pTB2248 and DIO2 expression plasmid pTB2249.
(§3) COS-7 cells (3×10^5) were plated in 6 cm petri dishes. […]

[2] = target: human DIO1 (type 1 thyroid hormone deiodinase) (Homo sapiens, UniProt P49895); settings: 1 mM PTU, T4 concentration 5 μM, 37° C. one hour; FIG. 4b
Source text: as §1, §2, §3

[3] = system: Normal human articular chondrocytes of knee (NHAC-kn); test: Induction of alkaline phosphatase activity in normal human articular chondrocytes of knee by T3; type: cell-based; settings: NHAC-kn cells, 0.05-50 nM T3, 6 days; FIG. 2
Procedure: Normal human articular chondrocytes of knee (NHAC-kn; Clonetics) were plated on gelatin-coated 24-well plates (Iwaki) at 2×10^5 cells/well and cultured in DMEM high glucose medium (Gibco) containing 1 μg/ml insulin, 1 μg/ml transferin, 1 ng/ml selenious acid (these components were contained in ITS; BD Bioscience), 1 mg/ml BSA, 50 μg/ml ascorbic acid phosphate magnesium salt n-hydrate (Wako) and 5 mM β-glycerophosphate in a CO2 incubator under 5% CO2 at 37° C. with addition of 0.05-50 nM T3 (triiodothyronine) (Sigma) if necessary. After 6 days, the culture broth was removed from cells and 200 μl of 10 mM Tris-HCl (pH 7.4) containing 0.1% Triton X-100 was added to each well. Then, cells were shaken at 4° C. for 1 hour on a horizontal shaker to thereby extract proteins from the cell layer. The alkaline phosphatase (AP) activity of the extract was determined from the yield of p-nitrophenol using p-nitrophenylphosphate as a substrate (Sigma). The protein content in the extract was measured with BCA protein assay reagent (Pierce) to thereby calculate the AP activity per a specific amount of protein.

[4] = system: Normal human articular chondrocytes of knee (NHAC-kn); test: Induction of MMP13 gene expression in normal human articular chondrocytes of knee by T3; type: cell-based; settings: NHAC-kn cells, 0.1-10 nM T3, 6 days; FIG. 3
Procedure: Normal human articular chondrocytes of knee (NHAC-kn; Clonetics) were plated on gelatin-coated 96-well plates (Iwaki) at 2×10^5 cells/well and cultured in DMEM high glucose medium (Gibco) containing 1 μg/ml insulin, 1 μg/ml transferin, 1 ng/ml selenious acid (these components were contained in ITS; BD Bioscience) and 1 mg/ml BSA, and supplemented with 5 mM β-glycerophosphate (Sigma), 50 μg/ml ascorbic acid phosphate magnesium salt n-hydrate (Wako) and, if necessary, 0.1-10 nM T3 (triiodothyronine) (Sigma), in a CO2 incubator under 5% CO2 at 37° C. After 6 days, RNA was extracted from cells using RNeasy (Qiagen) according to the attached protocol. Using the total RNA as a template, cDNA was synthesized from random primers with TaqManreverse transcription reagent (Applied Biosystems). Subsequently, 2 μl of the reaction solution containing cDNA was mixed with a 2 μl reaction solution containing 0.34 μM of two primers (SEQ ID NO: 15 and SEQ ID NO: 16) and 1×PCR Master Mix (Applied Biosystems) and subjected to PCR. […]
The PCR was performed with ABI7700 sequence detector (Applied Biosystems). The number of copies of MMP13 cDNA was measured by real-time monitoring the amount of the PCR product. The number of copies of β-actin cDNA was also measured in the same manner using TaqMan β-actin control reagent (Applied Biosystems) and used as internal standard. […]

human DIO1 (type 1 thyroid hormone deiodinase), sequence (P49895 whole entry): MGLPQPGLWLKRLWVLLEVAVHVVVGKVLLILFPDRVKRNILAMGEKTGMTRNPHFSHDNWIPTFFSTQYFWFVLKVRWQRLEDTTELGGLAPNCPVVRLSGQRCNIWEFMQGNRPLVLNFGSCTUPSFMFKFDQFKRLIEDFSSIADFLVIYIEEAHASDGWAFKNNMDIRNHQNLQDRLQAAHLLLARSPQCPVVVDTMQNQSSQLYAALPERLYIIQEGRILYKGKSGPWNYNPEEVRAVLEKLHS

CCCc1cc(=O)[nH]c(=S)[nH]1 [PTU, propylthiouracil]
influence on DIO2 activity of pTB2249 (T3 production) ([1]; 1 mM PTU, 37° C. one hour): influenced little
inhibition of DIO1 activity (T3 production) [2]: completely inhibited

N[C@@H](Cc1cc(I)c(Oc2ccc(O)c(I)c2)c(I)c1)C(=O)O [T3, triiodothyronine]
alkaline phosphatase (AP) activity of cell layer extract per amount of protein [3]: induced in a T3 concentration-dependent manner
mRNA of MMP13 (number of copies of MMP13 cDNA normalized with β-actin) [4]: induced in a T3 concentration-dependent manner

N[C@@H](Cc1ccc(Oc2cc(I)c(O)c(I)c2)c(I)c1)C(=O)O [rT3, riverse triiodothyronine]
inhibition of DIO2 activity of pTB2249 (T3 production) ([1]; rT3 5 μM, competition with T4, 37° C. one hour): partially inhibited
